From patent US4459290A, “C-23-Modified derivatives of OMT, pharmaceutical compositions and method of use” (priority 1982, dated 1984)
≈ marks a conversion by molar mass, not a printed value. Where two headings read alike, the source gives them in different places.

Assays:
Escherichia coli TEM = assay: MIC, standard agar-dilution assay (Table V); format: cell-based; details: Escherichia coli
Description: The MIC's in Tables V and VI were determined by standard agar-dilution assays. The MIC's in Table VII were obtained using a conventional broth-dilution microtiter test.

[1] = system: Citrobacter freundii CF17; assay: MIC, standard agar-dilution assay (Table VI); format: cell-based
Outline: (§1)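 Growth inhibition in liquid medium, in a routine microtiter broth-dilution series, gave the MIC against staphylococci and pasteurellae; the gram-negative enteric strain was tested by conventional agar dilution instead.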

[2] = system: Enterobacter aerogenes EB17; assay: MIC, standard agar-dilution assay (Table VI); format: cell-based; details: Klebsiella aerogenes
Outline: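 Each MIC derives from a dilution series, either on solid agar (Enterobacter aerogenes) or in liquid broth within microtiter plates (staphylococcal and Pasteurella strains).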

Enterobacter cloacae EB5 = assay: MIC, standard agar-dilution assay (Table VI); format: cell-based
Outline: as §1

[3] = system: Klebsiella pneumoniae X68; assay: MIC, standard agar-dilution assay (Table VI); format: cell-based
Outline: as §1

Proteus inconstans PR33 = assay: MIC, standard agar-dilution assay (Table VI); format: cell-based; details: Providencia alcalifaciens
Outline: as §1

Proteus morganii PR15 = assay: MIC, standard agar-dilution assay (Table VI); format: cell-based; details: Morganella morganii
Outline: as §1

[4] = system: Pseudomonas aeruginosa Ps18; assay: MIC, standard agar-dilution assay (Table VI); format: cell-based
Description: (§2) Especially noteworthy is the improved activity against gram-negative bacteria for several derivatives when compared to the activity of OMT. […] The MIC's in Tables V and VI were determined by standard agar-dilution assays. The MIC's in Table VII were obtained using a conventional broth-dilution microtiter test.

[5] = system: Pseudomonas aeruginosa X239; assay: MIC, standard agar-dilution assay (Table VI); format: cell-based
Description: as §2

[6] = system: Pseudomonas aeruginosa X528; assay: MIC, standard agar-dilution assay (Table VI); format: cell-based
Description: as §2

Salmonella typhi 1335 = assay: MIC, standard agar-dilution assay (Table VI); format: cell-based; details: Salmonella enterica
Outline: as §1

Serratia marcescens SE3 = assay: MIC, standard agar-dilution assay (Table VI); format: cell-based
Outline: as §1

Serratia marcescens X99 = assay: MIC, standard agar-dilution assay (Table VI); format: cell-based
Description: as §2

Pasteurella multocida = assay: Protection of one-day-old chicks against Pasteurella multocida infection (Table IX); format: in vivo; details: subcutaneous 30 mg/kg × 2, 1 and 4 hours post-challenge
Outline: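 One-day-old chicks were challenged subcutaneously with 0.1 ml of a twenty-hour tryptose broth culture of avian P. multocida. Compound was given subcutaneously at 30 mg/kg, 1 and 4 hours post-challenge, and protection against death was followed, with non-medicated infected chicks as controls.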

[7] = C. freundii CF17, agar dilution, read-out: MIC
[8] = E. aerogenes EB17, agar dilution, read-out: MIC
[9] = E. cloacae EB5, agar dilution, read-out: MIC
[10] = P. inconstans PR33, agar dilution, read-out: MIC
[11] = P. morganii PR15, agar dilution, read-out: MIC
[12] = P. aeruginosa Ps18, agar dilution, read-out: MIC
[13] = P. aeruginosa X239, agar dilution, read-out: MIC
[14] = P. aeruginosa X528, agar dilution, read-out: MIC
[15] = S. marcescens SE3, agar dilution, read-out: MIC
[16] = S. marcescens X99, agar dilution, read-out: MIC
[17] = E. coli TEM, agar dilution, read-out: MIC

Row | Structure (SMILES) | MIC (Escherichia coli TEM) [µg/mL] | MIC [1, 7] [µg/mL] | MIC [2, 8] [µg/mL] | MIC (Enterobacter cloacae EB5; [9]) [µg/mL] | MIC ([3]; X68) [µg/mL] | MIC (Proteus inconstans PR33; [10]) [µg/mL] | MIC [4, 12] [µg/mL] | MIC [5, 13] [µg/mL] | MIC [6, 14] [µg/mL] | MIC (Salmonella typhi 1335) [µg/mL] | MIC (Serratia marcescens SE3; [15]) [µg/mL] | MIC (Serratia marcescens X99; [16]) [µg/mL] | MIC ([1]; CF17) [µg/mL] | MIC ([2]; EB17) [µg/mL] | MIC (Proteus inconstans PR33; PR33) [µg/mL] | MIC ([6]; X528) [µg/mL] | Number of deaths/number treated (Pasteurella multocida) | MIC (Proteus morganii PR15; PR15) [µg/mL] | MIC ([5]; X239) [µg/mL] | MIC (Serratia marcescens X99; X99) [µg/mL] | further results
1 | CCC1OC(=O)CC(O)C(C)C(OC2OC(C)C(O)C(N(C)C)C2O)C(CC=O)CC(C)C(=O)C=CC(C)=CC1CF (stereo not shown) [Compound 15, 23-Deoxy-23-fluoro-OMT] | 8 (≈ 13.3 µM) | > 128 | 64 (≈ 107 µM) | > 128 | 64 (≈ 107 µM) | > 128 | 32 (≈ 53.4 µM) | 64 (≈ 107 µM) | 16 (≈ 26.7 µM) | 64 (≈ 107 µM) | > 128 | 64 (≈ 107 µM) |  |  |  |  |  |  |  |  | MIC (Proteus morganii PR15; [11]): 64 µg/mL (≈ 107 µM)
2 | CCC1OC(=O)CC(O)C(C)C(OC2OC(C)C(O)C(N(C)C)C2O)C(CC=O)CC(C)C(=O)C=CC(C)=CC1CSc1ccccc1 (stereo not shown) [Compound 2, 23-Deoxy-23-(phenyl)thio-OMT] | 8 (≈ 11.6 µM) |  |  | 64 (≈ 92.8 µM) | 32 (≈ 46.4 µM) |  | 64 (≈ 92.8 µM) | 64 (≈ 92.8 µM) |  | 64 (≈ 92.8 µM) | 64 (≈ 92.8 µM) | 64 (≈ 92.8 µM) | 32 (≈ 46.4 µM) | 32 (≈ 46.4 µM) | 32 (≈ 46.4 µM) | 16 (≈ 23.2 µM) | 10/10 |  |  |  | MIC (Proteus morganii PR15; [11]): 8 µg/mL (≈ 11.6 µM)
3 | CCC1OC(=O)CC(O)C(C)C(OC2OC(C)C(O)C(N(C)C)C2O)C(CC=O)CC(C)C(=O)C=CC(C)=CC1CN=[N+]=[N-] (stereo not shown) [Compound 8, 23-Deoxy-23-azido-OMT] | 16 (≈ 25.7 µM) | > 128 |  | > 128 | 64 (≈ 103 µM) | > 128 | 32 (≈ 51.4 µM) |  | 16 (≈ 25.7 µM) | 64 (≈ 103 µM) | > 128 |  |  | 64 (≈ 103 µM) |  |  | 10/10 | 64 (≈ 103 µM) | 64 (≈ 103 µM) | 64 (≈ 103 µM) | 
4 | CCC1OC(=O)CC(O)C(C)C(OC2OC(C)C(O)C(N(C)C)C2O)C(CC=O)CC(C)C(=O)C=CC(C)=CC1CSc1nnc(C)s1 (stereo not shown) [Compound 3, 23-Deoxy-23-(5-methyl-1,3,4-thiadiazol-2-yl)thio-OMT] |  | > 128 | > 128 | > 128 |  | > 128 | > 128 | > 128 |  | > 128 | > 128 | > 128 |  |  |  | 64 (≈ 89.9 µM) | 10/10 | 64 (≈ 89.9 µM) |  |  | MIC (Escherichia coli TEM; [17]): 32 µg/mL (≈ 44.9 µM); MIC ([3]; K. pneumoniae X68, agar dilution, read-out: MIC): > 128 µg/mL
5 | CCC1OC(=O)CC(O)C(C)C(OC2OC(C)C(O)C(N(C)C)C2O)C(CC=O)CC(C)C(=O)C=CC(C)=CC1CSc1nnnn1C (stereo not shown) [Compound 5, 23-Deoxy-23-(1-methyltetrazol-5-yl)thio-OMT] |  |  |  |  | > 128 |  |  |  |  | > 128 |  |  | > 128 | > 128 | > 128 | 64 (≈ 92 µM) | 3/10 | > 128 | > 128 | > 128 | MIC (Escherichia coli TEM; [17]): 32 µg/mL (≈ 46 µM); MIC (Enterobacter cloacae EB5; EB5): > 128 µg/mL; MIC ([4]; PS18): > 128 µg/mL; MIC (Serratia marcescens SE3; SE3): > 128 µg/mL
6 | CCC1OC(=O)CC(O)C(C)C(OC2OC(C)C(O)C(N(C)C)C2O)C(CC=O)CC(C)C(=O)C=CC(C)=CC1CSC(C)=O (stereo not shown) [Compound 7, 23-Deoxy-23-(acetyl)thio-OMT] |  |  |  |  | > 128 |  |  |  | 32 (≈ 48.8 µM) | > 128 |  |  | > 128 | > 128 | > 128 |  | 10/10 | > 128 | > 128 | > 128 | MIC (Enterobacter cloacae EB5; EB5): > 128 µg/mL; MIC ([4]; PS18): > 128 µg/mL; MIC (Serratia marcescens SE3; SE3): > 128 µg/mL
